According to PMC7690861, “Topical Administration of Cannabidiol: Influence of Vehicle-Related Aspects on Skin Permeation Process” (Pharmaceuticals, 2020):
Converted amounts (≈) assume the structure as drawn. Where two headings read alike, the source gives them in different places. Marks after values point to notes of the source that are not given here.

Tests used:
[1] = Preliminary chemical stability of CBD in tested formulations (total impurities); assay type: physicochemical; conditions: over the preparation process and the permeation experiments; preliminary data
Description: Evidence in the literature highlighted that CBD was quite unstable in a solution for a long period. Even if an in-depth investigation of the chemical stability of CBD loaded in the tested formulation has not been performed yet, preliminary data highlighted that CBD was stable over both the preparation process and the permeation experiments (total impurities < 2% of CBD assay). […] Further studies are needed to determine the long-term stability of the tested formulations.
HPLC analysis was run using an HP 1100 ChemStation system (Agilent Technologies Inc, USA), acetonitrile/phosphate buffer pH 3.0 (75/25, v/v) was used as mobile phase at a flow rate of 1.5 mL/min, injection volume was set at 20 μL. The UV detector was set at a wavelength of 215 nm. A reverse-phase C8 column (InertClone™, 5 μm, 150 × 4.6 mm; Phenomenex Inc, Torrance, USA) was used. The retention time of the CBD was 4.0 min. Two calibration curves were made in the overall range of 0.02–100 μg/mL.

[2] = design: method as in Burke [29]; conditions: experimental; ref Burke [29]; cited from earlier work
[3] = Fedors method; ref Minghetti et al. [26]; cited from earlier work

Description for physchem: The equilibrium solubility of CBD in each of the above-mentioned solvent systems was determined by the shake-flask method. An excess quantity of the cannabinoid compound was added to 1 mL of each test solution in a glass vial. […] In the case of aqueous solutions, the supernatant fluid was then filtered (0.45 μm PP syringe filter) and properly diluted in methanol before being analyzed by HPLC. In the case of oily solutions, the supernatant fluid was filtered (0.45 μm PVDF syringe filter); then, 60 μL of the filtered solution was withdrawn and added to 5 mL of methanol; the mixture was vortexed for 1 min and allowed to stand for 1 min three times, then it was centrifuged (4000 rpm, 2 min); the supernatant fluid was sampled and properly diluted in methanol before being analyzed by HPLC. Each solubility value was calculated as the mean of three independent shake-flask experiments, considering any dilution factors and an extraction efficiency factor in case of oily solutions.

Question: Which results are given for `C=C(C)[C@@H]1CCC(C)=C[C@H]1c1c(O)cc(CCCCC)cc1O` [CBD, Cannabidiol]?
Answer: solubility at 24 h (physchem): 2240 ± 80 µg/mL (≈ 7.12 mM); Total impurities [1]: < 2 % of CBD assay

Question: Which “δ (solubility parameter)” value [2] does the source give for `CC(O)CO` (stereo not shown) [Propylene glycol] here?
Answer: The value was 14.80 ^d cal/cm^3.

Question: Which “δ (solubility parameter)” value [3] does the source give for O-acylglucosylceramide here?
Answer: Its value is 10.03 ^a cal/cm^3.
